According to PMC7822874, “Chemoprotective antimalarials identified through quantitative high-throughput screening of Plasmodium blood and liver stage parasites” (Scientific Reports, 2021):
Like-named read-outs stand apart in the source and are kept apart here. Blank lines part the entries; values can stand above or below the compound they belong to.

Assays:
[1] = biological target: Firefly luciferase (Fluc, EC 1.13.12.7) (Photinus pyralis, UniProt P08659); assay: biochemical; design: single determination (the paper says generally: 'qHTS assays were performed in a single replicate with a 7- to 11-point dose response format'; it is not stated for this counterscreen itself)
Chain of Firefly luciferase (Fluc, EC 1.13.12.7) (P08659 whole entry): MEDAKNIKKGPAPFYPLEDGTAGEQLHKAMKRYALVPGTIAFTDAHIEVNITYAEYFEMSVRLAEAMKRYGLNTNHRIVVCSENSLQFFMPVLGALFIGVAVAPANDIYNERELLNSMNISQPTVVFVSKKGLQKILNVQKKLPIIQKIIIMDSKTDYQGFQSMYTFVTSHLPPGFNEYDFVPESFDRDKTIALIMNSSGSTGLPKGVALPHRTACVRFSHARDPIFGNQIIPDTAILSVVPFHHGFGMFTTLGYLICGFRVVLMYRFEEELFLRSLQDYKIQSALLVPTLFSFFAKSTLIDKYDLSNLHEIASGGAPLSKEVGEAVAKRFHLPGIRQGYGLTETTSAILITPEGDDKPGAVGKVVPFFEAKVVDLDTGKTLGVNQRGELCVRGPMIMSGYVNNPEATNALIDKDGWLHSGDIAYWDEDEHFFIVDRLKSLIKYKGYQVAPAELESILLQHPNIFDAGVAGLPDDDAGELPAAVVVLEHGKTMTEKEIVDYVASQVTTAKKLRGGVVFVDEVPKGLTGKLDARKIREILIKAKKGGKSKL

[2] = system: Plasmodium falciparum Dd2 asexual blood stage parasites; assay: microbe, parasite or virus in culture; design: species or system Plasmodium falciparum Dd2 in human erythrocytes; single determination (one 11-point concentration-response curve); settings: Plasmodium falciparum, DD2, Erythrocyte, 72 h; read-out: AC50
[3] = system: P. berghei-ANKA-GFP-LucCON liver stage parasites in HepG2-A16-CD81EGFP cells; assay: P. berghei liver stage Pb-Luc assay, Method 1 (UCSD, 1536-well); assay type: cell-based, Plasmodium berghei; settings: Plasmodium berghei, 48 h, P. berghei liver stage, average of 2 wells on a 1536 well plate; for activity at 1 µM: 1 µM compound treatment (10 mM stocks); for activity at 3 µM: 3 µM compound treatment (10 mM stocks)
HepG2-A16-CD81EGFP cells = settings: average of 2 wells
in vitro [4] = settings: human, HepG2-A16-CD81EGFP cells, uninfected
in vitro [5] = settings: human, HepG2 cells; n = 1
[6] = system: P. falciparum Dd2 Cytb V259L; assay: SYBR Green ABS proliferation assay, NCGC00473217 selected clone F06; assay type: cell-based, Plasmodium falciparum; settings: Plasmodium falciparum, DD2, NCGC00473217 selected clone F06; read-out: AC50 [μM], Cytb V259L (converted)
Summary of the method: (§1)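 Asexual blood-stage proliferation of cytochrome b-mutant Dd2 clones after 72 h compound exposure at 37 °C in low-oxygen gas, quantified as control-normalized SYBR Green-I fluorescence; differences tested by two-sided t-test.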

[7] = system: P. falciparum Dd2 Cytb A122D; assay: SYBR Green ABS proliferation assay, NCGC00473217 selected clone F12; assay type: cell-based, Plasmodium falciparum; settings: Plasmodium falciparum, DD2, NCGC00473217 selected clone F12; read-out: AC50 [μM], Cytb A122D (converted)
Summary of the method: as §1

Aqueous solubility = assay type: physicochemical; settings: aqueous media
Procedure: (§2) Pharmacokinetic modeling experiments, parallel artificial membrane permeability assay (PAMPA), solubility, and rat liver microsome stability assessment were performed on all synthetic compounds, as previously described[73]–[75].

[8] = system: P. falciparum Dd2 (clone B2) asexual blood stage parasites; assay: P. falciparum Dd2 asexual blood stage SYBR Green-I 72 h proliferation assay (qHTS); assay type: cell-based, Plasmodium falciparum; settings: Plasmodium falciparum, DD2, 72 h, SYBR Green 72 h
[9] = system: P. falciparum Dd2 Cytb G131S; assay: SYBR Green ABS proliferation assay, NCGC00374598 selected clone C11; assay type: cell-based, Plasmodium falciparum; settings: Plasmodium falciparum
Summary of the method: as §1

[10] = system: P. falciparum Dd2 Cytb F123L; assay: SYBR Green ABS proliferation assay, NCGC00473217 selected clone G08; assay type: cell-based, Plasmodium falciparum; settings: Plasmodium falciparum, DD2, NCGC00473217 selected clone G08; highest concentration 29 µM; read-out: AC50 [μM], Cytb F123L (converted)
Summary of the method: as §1

[11] = Rat liver microsomal stability (RLMS); settings: rat, rat liver microsomes
Procedure: as §2

in vitro [12] = settings: human, hepg2 cells
HepG2 = settings: human, hepg2 cells, 48 h

SMILES: Cc1ccc(-c2nc(C)c(C(=O)O)s2)cc1 [MLS000735996-01]
AC50 [1]: 13.6 µM

SMILES: Cc1nn(-c2ccccc2)c(C)c1/C=N/Nc1nc2ccccc2[nH]1 [MLS000332160-01]
AC50 [1]: 12.1 µM
AC50 [2]: 1.5 µM
activity at 1 µM ([3]; replicate 1, normalized, read-out: PbLuc 1uM growth rep1): 86%
activity at 1 µM ([3]; replicate 2, normalized, read-out: PbLuc 1uM growth rep2): 81%
activity at 3 µM ([3]; replicate 1, normalized, read-out: PbLuc 3uM growth rep1): 33%
activity at 3 µM ([3]; replicate 2, normalized, read-out: PbLuc 3uM growth rep2): 53%
HepG2 1uM growth rep1 (HepG2-A16-CD81EGFP cells; HepG2, 1 µM compound treatment (10 mM stocks), replicate 1, normalized): 93%
HepG2 1uM growth rep2 (HepG2-A16-CD81EGFP cells; HepG2, 1 µM compound treatment (10 mM stocks), replicate 2, normalized): 90%
HepG2 3uM growth rep1 (HepG2-A16-CD81EGFP cells; HepG2, 3 µM compound treatment (10 mM stocks), replicate 1, normalized): 89%
HepG2 3uM growth rep2 (HepG2-A16-CD81EGFP cells; HepG2, 3 µM compound treatment (10 mM stocks), replicate 2, normalized): 86%

SMILES: Cc1ccc(C)c(/N=N/c2nc3ccccc3n2C)c1 [MLS000577452-01]
AC50 [1]: 12.1 µM
AC50 [2]: 0.299 µM
viability at 48 h, 1 µM (in vitro [4]): 95%
viability at 48 h, 3 µM (in vitro [4]): 88%

SMILES: Cc1ccc2[nH]c(-c3sc4nc(C)ccc4c3N)nc2c1 [MLS000547128-01]
AC50 [1]: 12.1 µM

SMILES: Cc1ccc2nc(N3C(=O)CNC3=S)sc2c1 [MLS000768544-01]
AC50 [1]: 10.8 µM

SMILES: O=C1c2cnc(-c3cc4ccccc4o3)nc2OCCN1Cc1ccccc1 [NCGC00413600-01]
AC50 [1]: 11.1 µM

SMILES: O=C1c2cnc(-c3cc4ccccc4o3)nc2OCCN1c1ccccc1 [NCGC00413607-01]
AC50 [1]: 0.622 µM
CC50 at 48 h (in vitro [5]): 8.86 µM

SMILES: CCCN1C(CC(C)C)=NS(=O)(=O)c2cc(NC(=O)c3ccc(F)cc3)ccc21 [NCGC00521139]
AC50 [6]: > 29 µM
AC50 [7]: > 29 µM
solubility (Aqueous solubility): < 1 µg/mL
AC50 ([8]; WT Dd2-B2, read-out: AC50 Log[M] ± SD, Dd2-B2 (parental line) (converted)): 5.25e-07 M
AC50 ([8]; approximate value in μM, read-out: AC50 [μM], Dd2-B2 (parental line) (converted)): 5.23e-07 M
AC50 ([9]; DD2, NCGC00374598 selected clone C11, read-out: AC50 [μM], Cytb G131S (converted)): 0.355 µM
AC50 ([9]; DD2, NCGC00374598 selected clone, read-out: AC50 Log[M] ± SD, Cytb G131S (converted)): 0.355 µM
AC50 [10]: > 29 µM
half-life [11]: 6.3 min

SMILES: O=C(NCCC1=CCCCC1)C1CCN(C(=O)c2ncn3c2COC(c2ccccc2)C3)CC1 (stereo not shown) [NCGC00449771-01]
AC50 [1]: 21.5 µM

SMILES: Cc1cccnc1Nc1nc(-c2ccccn2)cs1 [MLS000528306-01]
AC50 [1]: 19.2 µM
CC50 at 48 h (in vitro [12]): 1.09 µM
AC50 [2]: 0.473 µM
Log AC50 (M) (HepG2): -5.9643 M
viability at 48 h, 1 µM (in vitro [4]): 57%
viability at 48 h, 3 µM (in vitro [4]): 30%

SMILES: O=C(NC1CCCCC1)c1[nH]nc2c1CCCCC2 [MLS002178094-01]
AC50 [1]: 4.82 µM

More lines, main results first:

AC50 [1]: 7.64 µM
SMILES: COc1ccc(NC(=O)c2cccc3c2CCN3C(=O)Nc2ccc(F)cc2)c(C)c1 [NCGC00430188-01]

AC50 [1]: 8.57 µM
SMILES: COc1ccc(C(=O)C=CNc2cc(C)ccn2)cc1 [MLS001043227-01]

AC50 [1]: 10.8 µM
SMILES: Cc1ccc(C(=O)Nc2sc3c(c2C(=O)O)CCCCC3)o1 [MLS000060651-01]

AC50 [1]: 9.62 µM
SMILES: CCOC(=O)Cc1csc(NC(=S)NC(=O)c2ccc(C)cc2)n1 [MLS000574610-01]

AC50 [1]: 12.1 µM
SMILES: Cc1ccoc1C(=O)Nc1ccc(CC(=O)O)cc1 [MLS000122814-01]

AC50 [1]: 0.0136 µM
SMILES: Nc1ncnc2c1ncn2[C@@H]1O[C@H](CN[S+](=O)([O-])NC(=O)c2cccc(-c3noc(-c4ccccc4F)n3)c2)[C@@H](O)[C@H]1O [NCGC00183809-01]
CC50 at 48 h (in vitro [5]): 1.72 µM

AC50 [1]: 0.0341 µM
SMILES: Cc1cn2c(=O)cc(COC(=O)c3cccc(NC(=O)COc4ccccc4Cl)c3)nc2s1 [NCGC00130619-01]

AC50 [1]: 15.2 µM
SMILES: CCc1ccc2oc(-c3cccc(NC(=O)c4ccc(-c5cccc([N+](=O)[O-])c5)o4)c3)nc2c1 [NCGC00102150-01]

AC50 [1]: 12.1 µM
SMILES: Cc1ccc(-c2cc(O)c3cc(C)ccc3n2)cc1 [MLS000517822-01]
AC50 [2]: 10.6 µM

AC50 [1]: 4.3 µM
SMILES: Cc1ccc(C(=O)NCCn2c(C)cc3ccccc32)cc1C [NCGC00107199-01]
